Where “and” joins values, the source holds several entries; their conditions need not be identical. Equal entries are not always repeated. Inconclusive results and toxic doses are left out.
System: L1210 leukemia ip in BDF1 mice, survival T/C
Test: NCI In Vivo Anticancer Drug Screen. Data for tumor model L1210 Leukemia (intraperitoneal) in B6D2F1 (BDF1) mice
Conditions: endpoint: mean survival time, higher = longer survival
Summary of the method: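 Value reflects the ratio of survival in compound-treated mice to survival in vehicle-treated controls, with both groups carrying the same transplanted tumor.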

[1] = dose: 50.0 mg/kg/injection, schedule: Q04DX002 (ip), vehicle: saline with Tween-80
[2] = dose: 100.0 mg/kg/injection, schedule: Q04DX002 (ip), vehicle: saline with Tween-80
[3] = dose: 200.0 mg/kg/injection, schedule: Q04DX002 (ip), vehicle: saline with Tween-80
[4] = dose: 50.0 mg/kg/injection, schedule: Q01DX001 (ip), vehicle: saline
[5] = dose: 100.0 mg/kg/injection, schedule: Q01DX001 (ip), vehicle: saline
[6] = dose: 200.0 mg/kg/injection, schedule: Q01DX001 (ip), vehicle: saline
[7] = dose: 400.0 mg/kg/injection, schedule: Q01DX001 (ip), vehicle: saline
[8] = dose: 100.0 mg/kg/injection, schedule: Q01DX009 (ip), vehicle: Klucel (hydroxypropylcellulose) (HPC)
[9] = dose: 200.0 mg/kg/injection, schedule: Q01DX009 (ip), vehicle: Klucel (hydroxypropylcellulose) (HPC)
[10] = dose: 400.0 mg/kg/injection, schedule: Q01DX009 (ip), vehicle: Klucel (hydroxypropylcellulose) (HPC)
[11] = dose: 50.0 mg/kg/injection, schedule: Q01DX009 (ip), vehicle: saline with Tween-80
[12] = dose: 100.0 mg/kg/injection, schedule: Q01DX009 (ip), vehicle: saline with Tween-80
[13] = dose: 200.0 mg/kg/injection, schedule: Q01DX009 (ip), vehicle: saline with Tween-80
[14] = dose: 25.0 mg/kg/injection, schedule: Q04DX003 (ip), vehicle: saline with Tween-80
[15] = dose: 50.0 mg/kg/injection, schedule: Q04DX003 (ip), vehicle: saline with Tween-80
[16] = dose: 400.0 mg/kg/injection, schedule: Q01DX009 (ip), vehicle: saline with Tween-80
[17] = dose: 100.0 mg/kg/injection, schedule: Q04DX003 (ip), vehicle: saline with Tween-80
[18] = dose: 200.0 mg/kg/injection, schedule: Q04DX003 (ip), vehicle: saline with Tween-80
[19] = dose: 400.0 mg/kg/injection, schedule: Q04DX003 (ip), vehicle: saline with Tween-80
[20] = dose: 100.0 mg/kg/injection, schedule: Q04DX002 (ip), vehicle: Klucel (hydroxypropylcellulose) (HPC)
[21] = dose: 200.0 mg/kg/injection, schedule: Q04DX002 (ip), vehicle: Klucel (hydroxypropylcellulose) (HPC)
[22] = dose: 400.0 mg/kg/injection, schedule: Q04DX002 (ip), vehicle: Klucel (hydroxypropylcellulose) (HPC)

OC(c1ccc(Br)cc1)C(O)c1ccc(Br)cc1 (stereo unspecified)
T/C [1]: 104 % of control | T/C [2]: 104 % of control | T/C [3]: 97 % of control

O=Nn1cc(-c2cc3ccccc3n2N=O)c2ccccc21
T/C [4]: 102 % of control | T/C [5]: 93 % of control | T/C [6]: 96 % of control | T/C [7]: 96 % of control

CCCCCCCCCCCCNC(=O)Nc1cccc(C)c1C
T/C [8]: 89 % of control | T/C (dose: 100.0 mg/kg/injection, schedule: Q04DX003 (ip), vehicle: Klucel (hydroxypropylcellulose) (HPC)): 98 % of control | T/C [9]: 100 % of control | T/C (dose: 200.0 mg/kg/injection, schedule: Q04DX003 (ip), vehicle: Klucel (hydroxypropylcellulose) (HPC)): 95 % of control | T/C [10]: 89 % of control | T/C (dose: 400.0 mg/kg/injection, schedule: Q04DX003 (ip), vehicle: Klucel (hydroxypropylcellulose) (HPC)): 95 % of control

CN(C)C(=S)N=Nc1ccccc1
T/C [11]: 92 % of control | T/C (dose: 50.0 mg/kg/injection, schedule: Q01DX009 (ip), vehicle: saline): 97 % of control | T/C [12]: 100 % of control | T/C (dose: 100.0 mg/kg/injection, schedule: Q01DX009 (ip), vehicle: saline): 100 % of control | T/C [13]: 100 % of control | T/C (dose: 200.0 mg/kg/injection, schedule: Q01DX009 (ip), vehicle: saline): 107 % of control

CC(CN(C)C)CN1c2ccccc2Sc2ccccc21 (stereo unspecified)
T/C (dose: 3.12 mg/kg/injection, schedule: Q04DX003 (ip), vehicle: saline with Tween-80): 105 % of control | T/C (dose: 3.12 mg/kg/injection, schedule: Q04DX003 (ip), vehicle: saline): 96 % of control | T/C (dose: 6.12 mg/kg/injection, schedule: Q04DX003 (ip), vehicle: saline with Tween-80): 101 % of control | T/C (dose: 6.25 mg/kg/injection, schedule: Q04DX003 (ip), vehicle: saline): 100 % of control and 104 % of control | T/C (dose: 12.5 mg/kg/injection, schedule: Q04DX003 (ip), vehicle: saline with Tween-80): 105 % of control | T/C (dose: 12.5 mg/kg/injection, schedule: Q04DX003 (ip), vehicle: saline): 102 % of control and 113 % of control | T/C [14]: 103 % of control | T/C (dose: 25.0 mg/kg/injection, schedule: Q04DX003 (ip), vehicle: saline): 102 % of control | T/C [15]: 120 % of control

O=C(Cc1ccccc1)c1ccccc1
T/C [12]: 93 % of control | T/C [13]: 93 % of control | T/C [16]: 100 % of control

CCOC1=NC(C)(C)CC(C)O1 (stereo unspecified)
T/C [14]: 95 % of control | T/C [15]: 101 % of control | T/C [17]: 102 % of control

O=C(Cn1ccc(O)cc1=O)c1ccc(Cl)s1
T/C [12]: 111 % of control | T/C [17]: 98 % of control | T/C [13]: 90 % of control | T/C [18]: 93 % of control | T/C [16]: 91 % of control | T/C [19]: 98 % of control

COc1ccc(Cl)cc1NS(=O)(=O)c1ccc(Cl)cc1
T/C [8]: 97 % of control | T/C [9]: 102 % of control | T/C [10]: 92 % of control

COC(=O)NC1CC(OC2CC(O)(C(C)=O)Cc3c(O)c4c(c(O)c32)C(=O)c2c(OC)cccc2C4=O)OC(C)C1O (stereo unspecified)
T/C (dose: 2.0 mg/kg/injection, schedule: Q04DX003 (ip), vehicle: water): 105 % of control | T/C (dose: 3.12 mg/kg/injection, schedule: Q01DX009 (ip), vehicle: saline with Tween-80): 103 % of control | T/C (dose: 4.0 mg/kg/injection, schedule: Q04DX003 (ip), vehicle: water): 106 % of control | T/C (dose: 6.25 mg/kg/injection, schedule: Q01DX009 (ip), vehicle: saline with Tween-80): 178 % of control | T/C (dose: 8.0 mg/kg/injection, schedule: Q04DX003 (ip), vehicle: water): 112 % of control | T/C (dose: 12.5 mg/kg/injection, schedule: Q01DX009 (ip), vehicle: saline with Tween-80): 124 % of control | T/C (dose: 16.0 mg/kg/injection, schedule: Q04DX003 (ip), vehicle: water): 109 % of control and 111 % of control | T/C (dose: 18.75 mg/kg/injection, schedule: Q04DX003 (ip), vehicle: saline with Tween-80): 112 % of control | T/C (dose: 25.0 mg/kg/injection, schedule: Q01DX009 (ip), vehicle: saline with Tween-80): 120 % of control | T/C (dose: 32.0 mg/kg/injection, schedule: Q04DX003 (ip), vehicle: water): 110 % of control | T/C (dose: 37.5 mg/kg/injection, schedule: Q04DX003 (ip), vehicle: saline with Tween-80): 118 % of control | T/C [11]: 122 % of control | T/C (dose: 64.0 mg/kg/injection, schedule: Q04DX003 (ip), vehicle: water): 110 % of control | T/C (dose: 75.0 mg/kg/injection, schedule: Q04DX003 (ip), vehicle: saline with Tween-80): 118 % of control | T/C (dose: 150.0 mg/kg/injection, schedule: Q04DX003 (ip), vehicle: saline with Tween-80): 115 % of control | T/C (dose: 125.0 micrograms/kg/injection, schedule: Q04DX003 (ip), vehicle: water): 102 % of control | T/C (dose: 250.0 micrograms/kg/injection, schedule: Q04DX003 (ip), vehicle: water): 107 % of control | T/C (dose: 500.0 micrograms/kg/injection, schedule: Q04DX003 (ip), vehicle: water): 101 % of control | T/C (dose: 1000.0 micrograms/kg/injection, schedule: Q04DX003 (ip), vehicle: water): 103 % of control | T/C (dose: 2000.0 micrograms/kg/injection, schedule: Q04DX003 (ip), vehicle: water): 106 % of control

COc1cc(Cl)c(/C=C2\N=C(c3ccccc3)OC2=O)cc1OC
T/C [4]: 94 % of control | T/C [5]: 91 % of control | T/C [6]: 97 % of control | T/C [7]: 94 % of control

O=c1nc(NCCc2cnc[nH]2)nc(NCCc2cnc[nH]2)[nH]1
T/C (dose: 50.0 mg/kg/injection, schedule: Q01DX009 (ip), vehicle: Klucel (hydroxypropylcellulose) (HPC)): 100 % of control | T/C [8]: 100 % of control | T/C [9]: 92 % of control

CC1=CC(=C2C=C(C)C(=O)C(C)=C2)C=C(C)C1=O
T/C (dose: 100.0 mg/kg/injection, schedule: Q01DX001 (ip), vehicle: saline with Tween-80): 87 % of control | T/C [17]: 94 % of control and 102 % of control | T/C [18]: 94 % of control and 96 % of control | T/C (dose: 400.0 mg/kg/injection, schedule: Q01DX001 (ip), vehicle: saline with Tween-80): 87 % of control | T/C [19]: 94 % of control and 89 % of control

C#CC[N+](C)(C)CC#C
T/C (dose: 50.0 mg/kg/injection, schedule: Q04DX003 (ip), vehicle: saline): 102 % of control | T/C (dose: 100.0 mg/kg/injection, schedule: Q04DX003 (ip), vehicle: saline): 94 % of control | T/C (dose: 200.0 mg/kg/injection, schedule: Q04DX003 (ip), vehicle: saline): 93 % of control

CCCCCCCCCC[As]1c2ccccc2Nc2ccccc21
T/C [1]: 92 % of control | T/C [2]: 89 % of control | T/C [3]: 96 % of control

C/C=C/CC1(CC)C(=O)NC(=S)NC1=O
T/C (dose: 75.0 mg/kg/injection, schedule: Q01DX001 (ip), vehicle: saline): 107 % of control | T/C (dose: 150.0 mg/kg/injection, schedule: Q01DX001 (ip), vehicle: saline): 113 % of control

O=C1C(O)=C(O)C(=O)C(O)=C1O
T/C [5]: 103 % of control | T/C [6]: 100 % of control | T/C [7]: 105 % of control

Nc1nc(N)c(-c2ccc(Cl)cc2)c(COc2cccc(NC(=O)c3ccc(NC(=O)CBr)cc3)c2)n1
T/C [5]: 91 % of control | T/C [6]: 91 % of control | T/C [7]: 104 % of control

COc1cc(CCCc2cccc(O)c(=O)c2)cc(OC)c1OC
T/C [2]: 91 % of control and 103 % of control | T/C [3]: 105 % of control and 89 % of control | T/C (dose: 400.0 mg/kg/injection, schedule: Q04DX002 (ip), vehicle: saline with Tween-80): 108 % of control and 116 % of control

OC1C2CCC(C2)C1C(O)(C(F)(F)Cl)C(F)(F)Cl (stereo unspecified)
T/C [17]: 93 % of control | T/C [18]: 92 % of control | T/C [19]: 97 % of control

CC1(C)CCC2=C(C1)Nc1ccc(Cl)cc1NC2c1ccc([N+](=O)[O-])cc1 (stereo unspecified)
T/C [20]: 117 % of control | T/C [21]: 109 % of control | T/C [22]: 98 % of control

CCOC(=O)c1cnccc1C#N
T/C [20]: 88 % of control | T/C [21]: 100 % of control | T/C [22]: 100 % of control

Source: PubChem BioAssay AID248 (DTP/NCI, 2004)
